These results are taken from the NIST ThermoML archive (doi:10.1021/acs.jced.5b00985).

Each structure is given as a SMILES string. ± gives the expanded uncertainty stated by the source.

This data set in a line: mn = molality of the nth substance listed, in mol/kg. The following applies: 100.8 kPa, Liquid, Pycnometric method.

As for `[NH4+].[O]=[V](=[O])[O-]` [ammonium vanadate] + O, the mass density – broadly, the mass of a sample divided by its volume – runs as follows: (313.15 K, m1 = 0.0946) 1002.1 ± 2 kg/m3; (343.15 K, m1 = 0.2563) 1001.1 ± 2.3 kg/m3; (343.15 K, m1 = 0.2612) 1001.3 ± 2.1 kg/m3.
